Read-outs that look alike come from different tables or passages of the source.
Tests used:
Ggly [1] = biological target: T1, Ggly (Homo sapiens, UniProt P01350); conditions: 20 equivalents; WO 2004/089976; cited from earlier work
progastrin = biological target: T2, progastrin (Homo sapiens, UniProt P01350); conditions: competition with ^59Fe^3+ ions (Baldwin 2004); cited from earlier work
T2 sequence (P01350 27-101 limits assumed): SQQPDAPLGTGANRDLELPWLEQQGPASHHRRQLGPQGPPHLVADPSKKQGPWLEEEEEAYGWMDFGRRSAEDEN

Ggly [2] = biological target: T1, Ggly; conditions: Ggly binds two Bi^3+ ions at pH 4; read-out: affinity; cited from earlier work
Ggly [3] = biological target: T1, Ggly; conditions: cited from earlier work; for quenching of Ggly fluorescence: WO 2004/089976; for binding to Ggly: detected by measurement of Ggly fluorescence (Baldwin 2001)
Ggly [4] = biological target: T1, Ggly; assay: Absorption spectroscopy (280 nm) of metal ion binding to Ggly, fitted with BioEqs; conditions: for A280 (%) for first site / A280 (%) for second site / A280 (%) for mixed FeGastrinM complex: Ggly, percentage absorbance at 280 nm, fitted
Experimental: (§1) Gamide and Ggly (88 and 93% pure, respectively) were purchased from Auspep (Clayton, Australia). The impurities consisted of water and salts. Solutions of metal ions (Aldrich, St. Louis, Mo.) were prepared in 10 mM HCl, and their concentrations determined by inductively coupled plasma-atomic emission spectroscopy at the National Measurement Institute (Pymble, Australia).
(§2) The 280 nm absorption of peptides (10 μM in 10 mM sodium acetate, pH 4.0, containing 100 mM NaCl and 0.005% Tween 20) in the presence of increasing concentrations of metal ions was measured against a buffer blank, in 1 ml quartz cuvettes thermostatted at 298 K, with a Cary 5 spectrophotometer (Varian, Mulgrave, Australia).
(§3) Data (expressed as means±S.E.M.) were fitted to one-site or two-site ordered models (as per FIG. 1) with the program BioEqs.
(§4) New absorption data sets were obtained, and fitted with the program Bioeqs as described in the Materials and Methods section. […] In the 2 site competitive model gastrin binds two ferric ions with dissociation constants Kd1Fe and Kd2Fe, and two metal ions M to the same two sites with dissociation constants Kd1M and Kd2M. The dissociation constant Kd3M describes the formation of the mixed FeGastrinM complex.

Gamide = biological target: T3, Gamide (Homo sapiens, UniProt P01350); assay: Absorption spectroscopy (280 nm) of metal ion binding to Gamide, fitted with BioEqs; conditions: for A280 (%) for first site / A280 (%) for second site / A280 (%) for mixed FeGastrinM complex: percentage absorbance at 280 nm, fitted
T3 construct: amidated gastrin34 and amidated gastrin17 (Gamide); purchased Auspep (Clayton, Australia)
Experimental: as §1, §2, §3, §4

gastrins = assay: Screen of binding affinities of a range of metals to gastrins
colon = conditions: infusion into gastrin-deficient mice (Wang 1996); cited from earlier work
[5] = Gamide 10 μM, pH 4.0, 298 K, 2 site model (Fe, Ga) or 2 site competitive model vs Fe^3+ (In, Ru), read-out: Kd1 (first iron binding site)
[6] = Gamide 10 μM, pH 4.0, 298 K, 2 site or 2 site competitive model, read-out: Kd2 (second site)
[7] = read-out: Kd2 (second site), Ggly 10 μM, pH 4.0, 298 K, 2 site or 2 site competitive model
[8] = Gamide, 2 site competitive model, read-out: Kd3 (formation of mixed FeGastrinM complex)

## [Al+3] [Al(III)]
Ggly [1]
  shift in Ggly NMR signals: nor did 20 equivalents of Al^3+ cause any significant shift in Ggly NMR signals
progastrin
  binding to progastrin: does not bind

## [Bi+3] [Bi^3+]
Ggly [2]
  Kd: 5800 nM

## [Ca+2] [Ca(II)]
progastrin
  binding to progastrin: does not bind

## [Co+2] [Co(II)]
progastrin
  binding to progastrin: does not bind
Ggly [3]
  quenching of Ggly fluorescence: not quench fluorescence
  binding to Ggly: does not bind

## [Cr+3] [Cr(III)]
progastrin
  binding to progastrin: does not bind
Ggly [3]
  quenching of Ggly fluorescence: not quench fluorescence
  binding to Ggly: does not bind

## [Cu+2] [Cu(II)]
progastrin
  binding to progastrin: does not bind
Ggly [3]
  quenching of Ggly fluorescence: not quench fluorescence
  binding to Ggly: does not bind

## [Eu+3] [Eu(III)]
progastrin
  binding to progastrin: does not bind

## [Fe+2] [Fe(II)]
progastrin
  binding to progastrin: does not bind

## [Fe+3] [Fe^3+]
Ggly [4]
  A280 (%) for first site: 100.0%
  A280 (%) for second site: 365.9%
Ggly [4]; Kd1 (first iron binding site), Ggly 10 μM, pH 4.0, 298 K, 2 site model (Fe, Ga) or 2 site competitive model vs Fe^3+ (In, Ru)
  Kd: 5.7 nM
Ggly [4]; Kd2 (second site), Ggly 10 μM, pH 4.0, 298 K, 2 site or 2 site competitive model
  Kd: 7 nM
Gamide; [5]
  Kd: 0.3 nM
Gamide; [6]
  Kd: 0.085 nM
Gamide; Gamide
  A280 (%) for first site: 100.0%
  A280 (%) for second site: 313.4%

## [Ga+3] [Ga^3+]
Ggly [4]
  Kd: 17 nM
  A280 (%) for first site: 100.0%
  A280 (%) for second site: 340.2%
Ggly [4]; [7]
  Kd: 2300 nM
Gamide; [5]
  Kd: 330 nM
Gamide; [6]
  Kd: 1100 nM
Gamide; Gamide
  A280 (%) for first site: 100.0%
  A280 (%) for second site: 335.8%
Gamide; Gastrin/Gamide, 2 site model, read-out: dissociation constant (Kd), first site
  Kd: 330 nM
Gamide; Gastrin/Gamide, 2 site model, read-out: dissociation constant (Kd), second site
  Kd: 1100 nM

## [In+3] [In^3+]
Ggly [4]
  Kd: 96 nM
  A280 (%) for first site: 100.0%
  A280 (%) for mixed FeGastrinM complex: 255.6%
  A280 (%) for second site: 72.8%
Ggly [4]; [7]
  Kd: 14000 nM
Gamide; [6]
  Kd: 170 nM
Gamide; [8]
  Kd: 4 nM
Gamide; Gamide
  A280 (%) for first site: 100.0%
  A280 (%) for mixed FeGastrinM complex: 217.7%
  A280 (%) for second site: 74.1%

## [Mn+2] [Mn(II)]
progastrin
  binding to progastrin: does not bind
Ggly [3]
  quenching of Ggly fluorescence: not quench fluorescence
  binding to Ggly: does not bind

## [Ru+3] [Ru^3+]
Ggly [4]
  Kd: 1200 nM
  A280 (%) for first site: 100.0%
  A280 (%) for mixed FeGastrinM complex: 304.1%
  A280 (%) for second site: 1714.8%
Ggly [4]; [7]
  Kd: 360000 nM
Gamide; [6]
  Kd: 12000 nM
Gamide; [8]
  Kd: 17 nM
Gamide; Gamide
  A280 (%) for first site: 100.0%
  A280 (%) for mixed FeGastrinM complex: 264.9%
  A280 (%) for second site: 178.6%

## [Zn+2] [Zn(II)]
progastrin
  binding to progastrin: does not bind

## [Sb] [antimony]
gastrins
  high affinity binding to gastrins: did not show high affinity binding

## [AsH3] [arsenic]
gastrins
  high affinity binding to gastrins: did not show high affinity binding

## ZGPWLEEEEEAYGWMDFamide [gastrin/Gamide]
colon
  increase of colonic proliferative index: no effect

Reference: patent US20180021373A1, “Ruthenium and Indium Binding to Gastrins” (EUPHARMA PTY LTD, priority 2015, published 2018)
